Series [1] in a line: Metabolic stability in human liver microsomes assessed as clearance. Format: ADME, Microsome. To be noted: read-out: CLH. Background: Liver microsomes are vesicles of endoplasmic reticulum, rich in cytochrome P450 enzymes.
A short description of series [2]: Metabolic stability in rat liver microsomes assessed as intrinsic clearance. Format: ADME, Microsome. To be noted: read-out: CLH.

Drawing on ChEMBL document CHEMBL5126511, “The evolution paths of some reprehensive scaffolds of RORγt modulators, a perspective from medicinal chemistry” (Eur J Med Chem, 2022), this text covers microsomal CLint for three molecules.

As for `Cc1ncc(C(=O)Nc2cn3ccnc3c(CN3CCN(C(=O)C4CCCC4)[C@@H](C)C3)c2C)cn1`, in series [1], the microsomal CLint was found to be 30 µL/min/mg.

As for `Cc1ncc(C(=O)Nc2cn3ccnc3c(CN3CCN(c4noc(C(C)(C)C)n4)[C@@H](C)C3)c2C)cn1`, the microsomal CLint in series [2] is under 25 µL/min/mg.

`Cc1ncc(C(=O)Nc2cc(Cl)cc(CN3CCN(C(=O)C4CCCC4)[C@@H](C)C3)c2C)cn1`: the microsomal CLint in series [1] was 97 µL/min/mg; in series [2] it was 33 µL/min/mg.
